# Results taken from ChEMBL document CHEMBL4002553, “Dragmacidins G and H, Bisindole Alkaloids Tethered by a Guanidino Ethylthiopyrazine Moiety, from a Lipastrotethya sp. Marine Sponge” (J Nat Prod, 2016).
# Test system: HeLa
# Assay: Cytotoxicity against human HeLa cells after 72 hrs by MTT assay
# Format: functional, cell-based
row,Structure (SMILES),IC50 [µM]
1,N=C(N)NCCSc1nc(-c2c[nH]c3cc(Br)ccc23)cnc1-c1c[nH]c2cc(Br)ccc12,4.2
2,O=C(c1nc(-c2c[nH]c3ccccc23)c[nH]1)c1c[nH]c2cc(O)ccc12 [TOPSENTIN],4.4
3,N=C(N)NCCSc1nc(-c2c[nH]c3ccccc23)cnc1-c1c[nH]c2cc(Br)ccc12,4.6
4,O=C(c1nc(-c2c[nH]c3cc(Br)ccc23)c[nH]1)c1c[nH]c2cc(O)ccc12 [BROMOTOPSENTIN],1.7
